Read-outs that look alike come from different tables or passages of the source.
Legend:
[1] = tested on: bloodstream form T. brucei; experiment: Growth inhibition of wild type / control bloodstream form T. brucei (resazurin); format: cell-based
T. cruzi epimastigotes = experiment: Growth inhibition of T. cruzi epimastigotes (resazurin); format: cell-based; details: for EC50: read-out: T. cruzi EC50
L. major promastigotes = experiment: Growth inhibition of L. major promastigotes (resazurin); format: cell-based; details: for EC50: read-out: L. major EC50
RH1^RC1 T. brucei = experiment: microbe, parasite or virus in culture; format: cell-based; details: for EC50: read-out: EC50 RH1^RC1;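 as to ratio (fold difference in EC50 between RH1^RC1 and wild type): resistant clone selected by stepwise exposure to the aziridinyl benzoquinone prodrug in culture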
[2] = tested on: T. brucei over expressing TbNTR (Tbntr++); experiment: microbe, parasite or virus in culture; format: cell-based; details: for EC50: Trypanosoma brucei, read-out: EC50 Tbntr++
[3] = tested on: T. brucei over expressing TbCPR2 (Tbcpr2++); experiment: microbe, parasite or virus in culture; format: cell-based; details: for EC50: Trypanosoma brucei, read-out: EC50 Tbcpr2++
[4] = tested on: T. brucei Tbsnm1 null mutants (ΔTbsnm1); experiment: microbe, parasite or virus in culture; format: cell-based; details: for EC50: Trypanosoma brucei, read-out: EC50 ΔTbsnm1
[5] = tested on: differentiated THP‐1 cells; experiment: Mammalian inhibition assay, differentiated THP-1 cells; format: cell-based; details: Homo sapiens, read-out: THP‐1 EC50
[6] = tested on: mouse peritoneal macrophages; experiment: Toxicity to mouse peritoneal macrophages (cell counts, Giemsa); format: cell-based, BALB/c mice; details: Peritoneal macrophage, 120 h, read-out: EC50 towards mouse peritoneal macrophages
[7] = tested on: T. brucei Tbntr heterozygote line; format: cell-based
RH1^RC2 T. brucei = experiment: microbe, parasite or virus in culture; format: cell-based; details: read-out: EC50 RH1^RC2
[8] = tested on: ΔTbsnm1 Tbntr++ T. brucei; format: cell-based
Wild type T. brucei = format: cell-based
[9] = Trypanosoma brucei, 72 h, read-out: T. brucei EC50
[10] = Trypanosoma brucei, read-out: EC50 Wild type
[11] = Trypanosoma brucei, Table 3, BSF T. brucei wild type, read-out: EC50 Wild type
[12] = Trypanosoma brucei, read-out: EC50 Control

CCC(=O)NC1=C(N2CC2C)C(=O)C(NC(=O)CC)=C(N2CC2C)C1=O (stereo not drawn) [ABQ33]
EC50 [1, 9]: > 10 µM | EC50 (T. cruzi epimastigotes; Trypanosoma cruzi, 336 h): > 10 µM | EC50 (L. major promastigotes; Leishmania major, 144 h): 8.157 ± 0.08 µM

CCOC(=O)NC1=C(N2CC2)C(=O)C(NC(=O)OCC)=C(N2CC2)C1=O [AZQ]
EC50 [1, 9]: 8.23 ± 0.272 µM | EC50 (T. cruzi epimastigotes; Trypanosoma cruzi, 336 h): 6 ± 0.283 µM | EC50 (L. major promastigotes; Leishmania major, 144 h): > 10 µM

NC(=O)c1cc(N2CC2)c([N+](=O)[O-])cc1[N+](=O)[O-] [CB1954, reference compound]
EC50 [1, 10]: 2.16 ± 0.125 µM | EC50 (RH1^RC1 T. brucei; Trypanosoma brucei): 13.1 ± 0.972 µM

NCCCC(N)(C(=O)O)C(F)F (stereo not drawn) [DFMO, difluoromethylornithine, reference compound]
EC50 [1, 11]: 16.8 ± 2.69 µM | EC50 [1, 12]: 27.5 ± 0.108 µM | Fold difference in EC50 Tbntr++ relative to control [2]: 30720 ± 1330 (1.12) | EC50 [2]: 30.7 µM | Fold difference in EC50 Tbcpr2++ relative to control [3]: 33250 ± 5123 (1.21) | EC50 [3]: 33.2 µM | ratio (fold difference in EC50 between RH1^RC1 and wild type) (RH1^RC1 T. brucei): 1.3 | EC50 (RH1^RC1 T. brucei; Trypanosoma brucei): 22.2 ± 0.383 µM | Ratio of EC50 values ΔTbsnm1 / control [4]: 0.99 | Susceptibility of Tbsnm1 null mutants relative to wild type / control (fold more susceptible) [4]: no significant difference | EC50 [4]: 27.1 ± 0.85 µM

O=C1C=C(N2CC2)C(=O)C=C1N1CC1 [DZQ]
T. brucei SI [1]: 1 | EC50 [1, 9]: 0.272 ± 0.001 µM | T. cruzi SI (T. cruzi epimastigotes): 36 | EC50 (T. cruzi epimastigotes; Trypanosoma cruzi, 336 h): < 0.01 µM | EC50 (T. cruzi epimastigotes): 0.005 ± 0.001 µM | L. major EC50 (L. major promastigotes): high potency | L. major SI (L. major promastigotes): 3 | EC50 (L. major promastigotes; Leishmania major, 144 h): 0.06 ± 0.001 µM | EC50 ([5]; THP-1, 72 h): 0.181 ± 0.005 µM | EC50 [6]: 0.255 µM | Fold difference in EC50 Tbntr++ relative to control [2]: 90 ± 3 (0.28 ) | EC50 [2]: 0.09 µM | Ratio of EC50 values ΔTbsnm1 / control [4]: 0.27 | EC50 [4]: 0.043 ± 0.002 µM

O=NN(CCCl)C(=O)NC1CCCCC1 [Lomustine]
EC50 [1, 11]: 16.6 ± 0.443 µM | ratio (fold difference in EC50 between RH1^RC1 and wild type) (RH1^RC1 T. brucei): 0.9 | EC50 (RH1^RC1 T. brucei; Trypanosoma brucei): 15.5 ± 0.665 µM

CC1=C(N2CC2)C(=O)C(C)=C(N2CC2)C1=O [MeDZQ]
T. brucei SI [1]: 1 | EC50 [1, 9]: 0.698 ± 0.057 µM | EC50 [1, 12]: 0.74 ± 0.018 µM | T. cruzi SI (T. cruzi epimastigotes): 16 | EC50 (T. cruzi epimastigotes; Trypanosoma cruzi, 336 h): 0.055 ± 0.002 µM | L. major SI (L. major promastigotes): 2 | EC50 (L. major promastigotes; Leishmania major, 144 h): 0.56 ± 0.139 µM | EC50 ([5]; THP-1, 72 h): 0.885 ± 0.023 µM | Fold difference in EC50 Tbntr++ relative to control [2]: 115 ± 3 (0.16 ) | EC50 [2]: 0.115 µM

N[C@@H](Cc1ccc(N(CCCl)CCCl)cc1)C(=O)O [Melphalan]
EC50 [1, 10]: 8.74 ± 0.2 µM | ratio (fold difference in EC50 between RH1^RC1 and wild type) (RH1^RC1 T. brucei): 1.2 | EC50 (RH1^RC1 T. brucei; Trypanosoma brucei): 10.4 ± 0.23 µM

CC1=C(N2CC2)C(=O)C(CO)=C(N2CC2)C1=O [RH1]
T. brucei SI ([1]; Selectivity Index: fold difference in EC50 of THP‐1 line relative to parasite): <5 | EC50 ([1]; Trypanosoma brucei, Table 2, parasites expressing wild type levels, read-out: EC50 Control): 0.019 ± 0.001 µM | EC50 [1, 11]: 0.025 ± 0.006 µM | EC50 ([1]; Trypanosoma brucei, Table 4, wild type T. brucei, read-out: EC50 Control): 0.019 ± 0.001 µM | inhibition at 0.005 µM ([1]; Trypanosoma brucei, 5 nM): ~10% | Growth of wild type T. brucei ([1]; medium containing RH1 (40 nM), after 24 hrs): no growth | T. cruzi SI (T. cruzi epimastigotes): <33 | L. major SI (L. major promastigotes): <1 | EC50 (L. major promastigotes; Leishmania major, 144 h, promastigotes, 6 days): < 0.1 µM | L. major EC50 (L. major promastigotes; promastigotes, 6 days): high potency | EC50 (L. major promastigotes; promastigotes, 6 days): 0.068 ± 0.001 µM | EC50 ([5]; 72 h, differentiated THP‐1 cells, 3 days): < 0.1 µM | EC50 ([6]; non‐cancerous primary cells, up to 5 days): < 0.1 µM | Fold difference in EC50 Tbntr++ relative to control [2]: 3 ± 1 (0.16 ) | Susceptibility of TbNTR over expressing T. brucei relative to controls / wild type (fold more susceptible) [2]: fivefold | EC50 [2]: 0.003 µM | Fold difference in EC50 Tbcpr2++ relative to control [3]: 20 ± 3 (1.05) | EC50 [3]: 0.02 µM | EC50 of Tbntr heterozygote line relative to wild type (fold greater) [7]: approximately 2.5 fold | Doubling time of resistant clones (RH1^RC1 T. brucei): ~10.5 h | Fold less sensitive, RH1^RC lines versus controls (RH1^RC1 T. brucei): ~4.5 fold | Fold less sensitive, RH1^RC lines versus wild type (RH1^RC1 T. brucei): ~3.5 fold | ratio (fold difference in EC50 between RH1^RC1 and wild type) (RH1^RC1 T. brucei): 3.3 | EC50 (RH1^RC1 T. brucei; Trypanosoma brucei): 0.086 ± 0.003 µM | EC50 (RH1^RC1 T. brucei): 0.083 ± 0.002 µM | EC50 (RH1^RC2 T. brucei; Trypanosoma brucei): 0.091 ± 0.011 µM | EC50 (RH1^RC2 T. brucei): 0.092 ± 0.001 µM | Ratio of EC50 values ΔTbsnm1 / control [4]: 0.26 | Susceptibility of Tbsnm1 null mutants relative to wild type / control (fold more susceptible) [4]: threefold | EC50 [4]: 0.005 ± 0.001 µM | Fold increase in susceptibility of ΔTbsnm1 Tbntr++ versus wild type [8]: 15 fold | Cells in G1/S phase (1N1K) (Wild type T. brucei): 37% | Cells in G2/M phase (1N2K) (Wild type T. brucei): 58%

CC1CCC(NC(=O)N(CCCl)N=O)CC1 (stereo not drawn) [Semustine]
EC50 [1, 10]: 15 ± 3.46 µM | ratio (fold difference in EC50 between RH1^RC1 and wild type) (RH1^RC1 T. brucei): 1.1 | EC50 (RH1^RC1 T. brucei; Trypanosoma brucei): 17.1 ± 3.62 µM

O=C1C=C(N2CC2)C(=O)C(N2CC2)=C1N1CC1 [TZQ]
T. brucei SI [1]: <1 | EC50 [1, 9]: 0.179 ± 0.001 µM | EC50 [1, 12]: 0.225 ± 0.026 µM | EC50 ([1]; read-out: EC50 Control): 0.253 ± 0.033 µM | T. cruzi SI (T. cruzi epimastigotes): <33 | L. major SI (L. major promastigotes): <11 | EC50 ([5]; THP-1, 72 h): < 0.1 µM | EC50 [6]: < 0.1 µM | Fold difference in EC50 Tbntr++ relative to control [2]: 60 ± 9 (0.27 ) | EC50 [2]: 0.06 µM | Fold difference in EC50 Tbcpr2++ relative to control [3]: 284 ± 13 (1.26) | EC50 [3]: 0.284 µM | Ratio of EC50 values ΔTbsnm1 / control [4]: 0.18 | Susceptibility of Tbsnm1 null mutants relative to wild type / control (fold more susceptible) [4]: 2.7 fold | EC50 [4]: 0.046 ± 0.001 µM | Fold increase in susceptibility of ΔTbsnm1 Tbntr++ versus wild type [8]: 15 fold

S=P(N1CC1)(N1CC1)N1CC1 [ThioTEPA, reference compound]
EC50 [1, 10]: 39.4 ± 0.796 µM | EC50 (RH1^RC1 T. brucei; Trypanosoma brucei): 56.3 ± 1.96 µM

C1CN1c1nc(N2CC2)nc(N2CC2)n1 [Triethylenemelamine]
EC50 [1, 10]: 2.4 ± 0.086 µM | ratio (fold difference in EC50 between RH1^RC1 and wild type) (RH1^RC1 T. brucei): 1.1 | EC50 (RH1^RC1 T. brucei; Trypanosoma brucei): 2.77 ± 0.064 µM

O=C(Cn1ccnc1[N+](=O)[O-])NCc1ccccc1 [benznidazole]
Susceptibility of RH1 selected (RH1^RC) lines relative to wild type (RH1^RC1 T. brucei): cross‐resistance

phleomycin [reference compound]
Cells in G1/S phase (1N1K) (Wild type T. brucei): approximately 80%

Source: paper PMC5656836, “Distinct activation mechanisms trigger the trypanocidal activity of DNA damaging prodrugs” (Molecular Microbiology, 2017)
